Literature values as cited in patent publication US20060270610A1, “Novel compounds for hypoxic cell therapy and imaging” (priority 2005, published 2006).
Where two headings read alike, the source gives them in different places.

Tests used:
[1] = target: T1, NBMPR (nitrobenzylthioinosine)-sensitive equilibrative nucleoside transporter (Homo sapiens, UniProt Q99808); conditions: in vitro, erythrocytes
T1 construct: equilibrative nucleoside transporter in erythrocytes; endogenous in cells
T1 sequence (Q99808 1-456): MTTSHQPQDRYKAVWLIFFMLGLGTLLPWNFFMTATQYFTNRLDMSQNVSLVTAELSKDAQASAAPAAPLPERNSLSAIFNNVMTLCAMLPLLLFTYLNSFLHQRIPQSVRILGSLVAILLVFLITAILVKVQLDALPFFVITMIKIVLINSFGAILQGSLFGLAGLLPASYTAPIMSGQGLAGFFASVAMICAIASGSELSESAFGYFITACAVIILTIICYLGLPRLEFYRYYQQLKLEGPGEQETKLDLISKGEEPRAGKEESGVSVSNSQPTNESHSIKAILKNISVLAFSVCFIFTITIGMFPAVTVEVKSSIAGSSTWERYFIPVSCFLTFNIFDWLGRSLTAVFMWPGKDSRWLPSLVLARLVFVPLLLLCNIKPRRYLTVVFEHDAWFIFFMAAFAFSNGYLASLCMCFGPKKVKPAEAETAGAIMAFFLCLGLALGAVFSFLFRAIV

[2] = rats, via the renal system; compared with [18F]FMISO
[3] = test system: murine tumor models; conditions: three different murine tumor models; greater than [18F]FMISO

OC[C@H]1OC(O)[C@H]([18F])[C@@H](O)[C@@H]1O (stereo partly drawn) [[^18F]FDG]
uptake in normal brain tissue (human, in vivo): taken up as a reflection of glucose metabolism in healthy brain

O=[N+]([O-])c1nccn1CC(O)C[18F] (stereo not drawn) [[^18F]FMISO]
uptake in normal brain tissue (human, in vivo): taken up non-specifically by brain

O=[N+]([O-])c1nccn1[C@H]1O[C@H](CI)[C@@H](O)[C@@H]1O [IAZA, 1-α-D-(5-dexoy-5-iodorabinofuranosyl)-2-nitroimidazole]
transport by NBMPR-sensitive equilibrative nucleoside transporter [1]: not transported

O=[N+]([O-])c1nccn1[C@H]1O[C@H](C[18F])[C@@H](O)[C@@H]1O [[^18F] 1-α-D-FAZA]
clearance from blood, viscera and muscle tissue [2]: faster clearance | tumor:blood ratios relative to [18F]FMISO [3]: 2-4 times | uptake in normal brain tissue (patients studied sequentially): absence of [^18F] 1-α-D-FAZA uptake
